What all share (assay): NCI-60 cell line screen, 48 h
Assay [1] relates to 786-0 renal.
The test system of assay [2] is NCI-H522 lung.
Assay [3] relates to OVCAR-8 ovarian.
For assay [4], the system named is SK-MEL-2 melanoma.
Assay [5] relates to SK-MEL-28 melanoma.
Assay [6] has as its system SK-MEL-5 melanoma.
In assay [7] the test system is SN12C renal.
Assay [8] relates to SR leukemia.
Assay [9] relates to HS 578T breast.
Assay [10] has as its system PC-3 prostate.

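Values below derive from 48-hour exposures of cells grown in 96-well plates, with endpoints linearly interpolated between the two concentrations bracketing the appropriate inhibition level. Abbreviation: GI50, concentration required for 50% inhibition of growth. TGI marks complete inhibition of growth.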 Some results are limits rather than exact numbers.

With `CN=NN(C)C(=O)NC`, the TGI in [1], in assay [2], in [3], in assay [4], in assay [5] and in [6] was greater than 100 µM throughout. Moreover, the TGI in [7] and in assay [8] was greater than 100 µM in each case.
With `COc1ccc(-c2cc(-c3cccn3C)c(C#N)c(N)n2)cc1OC`, the GI50 is greater than 100 µM in assay [1]; greater than 100 µM in assay [9]; 40.4 µM in assay [2]; greater than 100 µM in assay [3]; 99 µM in assay [10]; greater than 100 µM in [4]. In addition, the GI50 in [5] is greater than 100 µM; in assay [6], greater than 100 µM; in assay [7] it was 66.9 µM. Moreover, the TGI in [1], in assay [9], in [2], in assay [3], in assay [10] and in [4] was greater than 100 µM throughout. The TGI in assay [5], in assay [6] and in [7] was greater than 100 µM in each case.
Take `O=c1[nH]c2cc(Cl)ccc2n1C1CCN(CCCC(c2ccc(F)cc2)c2ccc(F)cc2)CC1`: the GI50 was 1.46 µM in assay [1]; 1.82 µM in assay [2]; 1.69 µM in [3]; 1.69 µM in [10]; 1.7 µM in [4]; 1.47 µM in assay [5]. Also, the results for the GI50 in [6], in assay [7] and in assay [8] were 1.55 µM, 1.78 µM and 2.25 µM, respectively. Also, the TGI was 2.79 µM in assay [1]; 3.64 µM in [2]; 3.56 µM in assay [3]; 4.4 µM in [10]; 3.35 µM in assay [4]; 3.1 µM in [5]. The TGI in [6] turned out to be 2.89 µM; in assay [7], 3.27 µM; in assay [8] it was 8.36 µM.
For the compound `Cc1ccc(N(CSc2ccc(Cl)cc2)CSc2ccc(Cl)cc2)cc1`, the GI50 in assay [1] was 1.66 µM; in assay [2], 1.49 µM; in [3], 1.55 µM; in assay [10], 0.787 µM; in assay [4], 3.76 µM; in [5] it was 1.64 µM. The GI50 was 1.18 µM in assay [6], 0.501 µM in assay [7] and 1.04 µM in [8]. Further, the TGI is 7.66 µM in [1]; 3.18 µM in assay [2]; greater than 100 µM in assay [3]; 13.2 µM in assay [10]; 25 µM in assay [4]; 4.23 µM in [5]. Further, the TGI was 2.5 µM in assay [6], 14.5 µM in assay [7] and 4.86 µM in assay [8].
As for `N#CC(/C(=N/NC(=O)C(=O)NN)C(=O)NC12CC3CC(CC(C3)C1)C2)c1ccccc1` (stereo unspecified), the TGI in assay [1], in assay [2], in assay [3], in assay [4], in assay [5] and in [6] was greater than 100 µM throughout. Further, the TGI in assay [7] and in assay [8] was greater than 100 µM in each case.
Regarding `Nc1c(C(=O)N/N=C/c2ccc(-c3ccc(Cl)cc3)o2)cnn1-c1ccnc2c(C(F)(F)F)cccc12`, the GI50 was greater than 100 µM in assay [1]; greater than 100 µM in [9]; greater than 100 µM in [2]; 35 µM in assay [10]; greater than 100 µM in assay [4]; greater than 100 µM in assay [5]. In addition, the results for the GI50 in assay [6] and in assay [7] were 49.1 µM and greater than 100 µM, respectively. For the same compound, the TGI in assay [1], in assay [9], in assay [2], in assay [10], in assay [4] and in assay [5] was greater than 100 µM throughout. Moreover, the TGI in assay [6] and in [7] was greater than 100 µM in each case.
Regarding `C#CC(=O)Nc1cccc(Nc2nc3c(c(NCc4ccccc4)n2)CCCC3)c1`, the GI50 in [1] is less than 0.01 µM; in assay [2] it was less than 0.01 µM; in assay [3], 0.0144 µM; in [10], less than 0.01 µM; in assay [4] it was 0.543 µM; in assay [5], 1.49 µM. Further, the GI50 in assay [6] was 1.12 µM. In addition, the TGI was less than 0.01 µM in assay [1]; less than 0.01 µM in assay [2]; 1.12 µM in [3]; 0.0344 µM in assay [10]; 1.98 µM in [4]; 2.97 µM in assay [5]. For the same compound, the TGI in assay [6] amounted to 2.44 µM.
Turning to `CCCCCCCCCc1cc(=O)c2c(O)cccc2o1`, the TGI in [1] is greater than 100 µM; in assay [2], greater than 100 µM; in assay [3] it was greater than 100 µM; in assay [4] it was 64.7 µM; in [5], greater than 100 µM; in [6] it was 46.6 µM. Further, the TGI in [7] and in assay [8] was greater than 100 µM in each case.
Take `O=C(CCC(=O)Nc1cccc(Cl)c1)CC(=O)c1ccc(Cl)cc1`: the TGI in assay [1], in assay [2], in assay [3], in assay [4], in assay [5] and in assay [7] was greater than 100 µM throughout. In assay [8], this compound registered a TGI greater than 100 µM.
For `CCOC(=O)[C@H](CCCNC(=O)OC(C)(C)C)NCc1ccc(OC)c(OC)c1`, the TGI in assay [1], in assay [2], in assay [3], in [4], in assay [5] and in [6] was greater than 100 µM in each case. Further, the TGI in assay [7] and in assay [8] was greater than 100 µM each time.
As for `CC(C)(C)N1CC2(CCCCC2)C1=O`, the TGI in assay [1], in assay [2], in assay [3], in assay [4], in [5] and in [6] was greater than 100 µM throughout. Besides, the TGI in assay [7] and in [8] was greater than 100 µM throughout.
On to `CCCCCc1c(C)[nH]c(/C=C2\N=C(c3ccc[nH]3)C=C2CC)c1C`, for which the GI50 in [1] is less than 0.01 µM; in [9] it was 0.014 µM; in assay [2], less than 0.01 µM; in assay [10] it was less than 0.011 µM; in assay [4], less than 0.01 µM; in [5] it was 0.0296 µM. Besides, the GI50 in [6] was 0.0141 µM; in assay [7], 0.0169 µM. Also, the TGI in [1] stood at 0.0352 µM; in assay [9] it was 0.129 µM; in assay [2], 0.106 µM; in assay [10], 1.23 µM; in [4], 0.0257 µM; in assay [5], 0.144 µM. In addition, the TGI in [6] came to 0.0278 µM; in assay [7], 0.226 µM.
With `Cc1cc(C)n(CCNCCn2nc(C)cc2C)n1`, the TGI in assay [1] is greater than 100 µM; in assay [2], greater than 100 µM; in assay [3] it was greater than 100 µM; in assay [4], greater than 1 µM; in assay [5] it was greater than 100 µM; in assay [6] it was greater than 100 µM. Moreover, the TGI in assay [7] and in assay [8] was greater than 100 µM throughout.
For the compound `COc1ccccc1NC(=O)C1=C(C)NC(C)=C(C(=O)Nc2ccccc2OC)C1c1ccc([N+](=O)[O-])cc1`, the TGI in assay [1], in assay [2], in assay [3], in assay [4], in assay [5] and in [6] was greater than 100 µM in each case. Moreover, the TGI in [7] and in [8] was greater than 100 µM throughout.
With `O=C(Nc1ccc([N+](=O)[O-])cc1)C1C(=O)C(=O)N(c2ccc([N+](=O)[O-])cc2)C1=O` (stereo unspecified), the TGI in assay [1], in assay [2], in [3], in assay [4], in assay [5] and in [6] was greater than 100 µM throughout. Further, the TGI in [7] and in assay [8] was greater than 100 µM in each case.
Consider `CCOC(=O)C1=C(C)N(N)C(=S)NC1c1ccc(C)cc1` (stereo unspecified), for which the GI50 in assay [1] was greater than 100 µM; in assay [2], 18.2 µM; in assay [3], greater than 100 µM; in assay [10], 32.8 µM; in assay [4], 21.4 µM; in assay [5], 6.99 µM. Moreover, the values for the GI50 in [6], in [7] and in [8] were 13.1 µM, greater than 100 µM and 28.3 µM, respectively. Besides, the TGI in assay [1], in assay [2], in assay [3], in assay [10], in assay [4] and in assay [5] was greater than 100 µM throughout. The TGI is 30.4 µM in assay [6], greater than 100 µM in assay [7] and greater than 100 µM in [8].
In the case of `O=C(CSc1nnc(-c2ccccc2NC(=O)C(F)(F)F)c(=O)[nH]1)NC(=O)Nc1ccccc1`, the TGI in assay [1], in assay [2], in assay [3], in assay [4], in [5] and in assay [7] was greater than 100 µM throughout. This compound had a TGI in assay [8] greater than 100 µM.

(Values after PubChem BioAssay (NCI).)
